Assay results published in ChEMBL document CHEMBL4011581, “Interference with bile salt export pump function is a susceptibility factor for human liver injury in drug development” (Toxicol Sci, 2010).

How the values were obtained:
Bile salt export pump [1] = molecular target: T1, Bile salt export pump (Homo sapiens, UniProt O95342); test: (§1) Inhibition of human BSEP expressed in fall armyworm sf9 cell plasma membrane vesicles assessed as reduction in vesicle-associated [3H]-taurocholate transport preincubated for 10 mins prior to ATP addition measured after 15 mins in presence of [3H]-taurocholate by topcount based membrane vesicle transport assay; assay type: ADME
Bile salt export pump [2] = molecular target: T1, Bile salt export pump; test: Inhibition of human BSEP expressed in fall armyworm sf9 cell membrane vesicles assessed as reduction in ATP-dependent [3H]-taurocholic acid uptake preincubated for 30 mins prior to [3H]-taurocholic acid addition by liquid scintillation counting; assay type: ADME
Bile salt export pump [3] = molecular target: T1, Bile salt export pump; test: Inhibition of human BSEP expressed in fall armyworm sf9 cell membrane vesicles assessed as reduction in ATP-dependent [3H]-taurocholic acid uptake at 100 uM preincubated for 30 mins prior to [3H]-taurocholic acid addition by liquid scintillation counting relative to control; assay type: ADME
Bile salt export pump [4] = molecular target: T1, Bile salt export pump; test: as §1, with “cell” for “cell plasma”, “[3H]-taurocholate at 133 uM” for “[3H]-taurocholate transport”, “assay relative to control” for “assay”; assay type: ADME
Bile salt export pump [5] = molecular target: T1, Bile salt export pump; test: Inhibition of BSEP in human hepatocytes assessed as reduction in biliary excretion of [3H]-taurocholate in cell lysates after 15 mins by liquid scintillation counting; assay type: ADME, cell-based, Lysate
Bile salt export pump [6] = molecular target: T1, Bile salt export pump; test: Inhibition of BSEP in human hepatocytes assessed as reduction in biliary excretion of [3H]-taurocholate in cell lysates at 10 to 100 uM after 15 mins by liquid scintillation counting relative to control; assay type: ADME, cell-based, Lysate

Structure (SMILES)	IC50 (Bile salt export pump [1])	also measured
Cc1cccc(Nc2cc(Cl)nc(SCC(=O)O)n2)c1C [PIRINIXIC ACID]	75 to 105 µM	
C[C@@H]1CCC[C@H](C)N1NC(=O)c1ccc(Cl)c(S(N)(=O)=O)c1 [CLOPAMIDE]	> 135 µM	
CN(Cc1cnc2nc(N)nc(N)c2n1)c1ccc(C(=O)N[C@@H](CCC(=O)O)C(=O)O)cc1 [METHOTREXATE]	> 135 µM	
CC1=NS(=O)(=O)c2cc(Cl)ccc2N1 [DIAZOXIDE]	> 135 µM	
CC(C)(C)NCC(O)c1cc(O)cc(O)c1 (centres undefined) [TERBUTALINE]	> 135 µM	
Nc1c2c(nc3ccccc13)CCCC2 [TACRINE]	> 135 µM	
CCCCNc1cc(C(=O)O)cc(S(N)(=O)=O)c1Oc1ccccc1 [BUMETANIDE]	> 135 µM	
COc1ccc(Cl)cc1[C@]1(F)C(=O)Nc2cc(C(F)(F)F)ccc21 [FLINDOKALNER]	> 135 µM	
CC(C)C(=O)Nc1ccc([N+](=O)[O-])c(C(F)(F)F)c1 [FLUTAMIDE]	> 135 µM	IC50 (Bile salt export pump [2]): 50 µM; Imax (Bile salt export pump [3]): 40 to 50%; Imax (Bile salt export pump [4]): 50%; IC50 (Bile salt export pump [5]): 75 µM; Imax (Bile salt export pump [6]): 20%
COc1ccc2[nH]c([S+]([O-])Cc3ncc(C)c(OC)c3C)nc2c1 (centres undefined) [OMEPRAZOLE]	75 to 105 µM	
COCC(=O)O[C@]1(CCN(C)CCCc2nc3ccccc3[nH]2)CCc2cc(F)ccc2[C@@H]1C(C)C [MIBEFRADIL]	25 to 45 µM	
CCc1ccc(CCOc2ccc(CC3SC(=O)NC3=O)cc2)nc1 (centres undefined) [PIOGLITAZONE]	0.4 µM	
N=C(N)NC(=O)Cc1c(Cl)cccc1Cl [GUANFACINE]	> 135 µM	
CN1C(C(=O)Nc2ccccn2)=C(O)c2sccc2S1(=O)=O [TENOXICAM]	> 135 µM	
COc1cccc2c1C(=O)c1c(O)c3c(c(O)c1C2=O)C[C@@](O)(C(=O)CO)C[C@@H]3O[C@H]1C[C@H](N)[C@H](O)[C@H](C)O1 [DOXORUBICIN]	> 135 µM	
NC[C@H]1O[C@H](O[C@H]2[C@H](O)[C@@H](O[C@H]3O[C@H](CO)[C@@H](O)[C@H](N)[C@H]3O)[C@H](N)C[C@@H]2N)[C@H](O)[C@@H](O)[C@@H]1O [KANAMYCIN]	> 135 µM	
Cc1ccc(C(=O)Nc2ccc(S(=O)(=O)O)c3cc(S(=O)(=O)O)cc(S(=O)(=O)O)c23)cc1NC(=O)c1cccc(NC(=O)Nc2cccc(C(=O)Nc3cc(C(=O)Nc4ccc(S(=O)(=O)O)c5cc(S(=O)(=O)O)cc(S(=O)(=O)O)c45)ccc3C)c2)c1 [SURAMIN]	> 135 µM	
CCN1CCC[C@H]1CNC(=O)c1c(OC)ccc(Br)c1OC [REMOXIPRIDE]	> 135 µM	
COc1cc(Cc2cnc(N)nc2N)cc(OC)c1OC [TRIMETHOPRIM]	> 135 µM	
Cc1ccc(C)c(OCCCC(C)(C)C(=O)O)c1 [GEMFIBROZIL]	> 135 µM	
COc1ccc(C(CN(C)C)C2(O)CCCCC2)cc1 (centres undefined) [VENLAFAXINE]	> 135 µM	
Cc1onc(-c2c(Cl)cccc2Cl)c1C(=O)N[C@@H]1C(=O)N2[C@@H]1SC(C)(C)[C@@H]2C(=O)O [DICLOXACILLIN]	45 to 60 µM	
COc1ccc2c3c1O[C@H]1C[C@@H](O)C=C[C@@]31CCN(C)C2 [GALANTAMINE]	> 135 µM	
CCOC(=O)Nc1ccc(NCc2ccc(F)cc2)nc1N [FLUPIRTINE]	35.5 µM	
Cc1cc(=O)n(-c2ccccc2)n1C [ANTIPYRINE]	> 135 µM	

Structure (SMILES)	IC50 (Bile salt export pump [1])	also measured
S=P(N1CC1)(N1CC1)N1CC1 [THIOTEPA]	> 135 µM	
O=c1[nH]cc(F)c(=O)[nH]1 [FLUOROURACIL]	> 135 µM	
CN1CCN(C2=Nc3cc(Cl)ccc3Nc3ccccc32)CC1 [CLOZAPINE]	> 135 µM	
O=P(O)(O)C(O)(Cn1ccnc1)P(=O)(O)O [ZOLEDRONIC ACID]	> 135 µM	
C[C@@H]1C[C@H]2[C@@H]3CCC4=CC(=O)C=C[C@]4(C)[C@@]3(F)[C@@H](O)C[C@]2(C)[C@@]1(O)C(=O)CO [DEXAMETHASONE]	> 135 µM	
CC[C@H]1OC(=O)[C@H](C)C(=O)[C@H](C)[C@@H](O[C@@H]2O[C@H](C)C[C@H](N(C)C)[C@H]2O)[C@](C)(OC)C[C@@H](C)C(=O)[C@H](C)[C@H]2N(CCCCn3cnc(-c4cccnc4)c3)C(=O)O[C@]12C [TELITHROMYCIN]	4 µM	
C(=C\c1ccccc1)/CN1CCN(C(c2ccccc2)c2ccccc2)CC1 [CINNARIZINE]	15.7 µM	
CC(CN1c2ccccc2Sc2ccccc21)N(C)C (centres undefined) [PROMETHAZINE]	> 135 µM	
CN(C)C(=O)CCSC(SCCC(=O)O)c1cccc(/C=C/c2ccc3ccc(Cl)cc3n2)c1 (centres undefined) [MK-571]	3.5 µM	
CCc1oc2ccccc2c1C(=O)c1cc(Br)c(O)c(Br)c1 [BENZBROMARONE]	17.5 µM	
CCCCCC[C@H]1C(=O)O[C@H](C)[C@H](NC(=O)c2cccc(NC=O)c2O)C(=O)O[C@@H](C)[C@@H]1OC(=O)CC(C)C [ANTIMYCIN A]	45 to 60 µM	
OCCN1CCN(CCCN2c3ccccc3Sc3ccc(Cl)cc32)CC1 [PERPHENAZINE]	> 135 µM	
Nc1nc(N)c2nc(-c3ccccc3)c(N)nc2n1	> 135 µM	
CC(=O)CCCCn1c(=O)c2c(ncn2C)n(C)c1=O [PENTOXIFYLLINE]	> 135 µM	
N[C@@H](CC(=O)N1CCn2c(nnc2C(F)(F)F)C1)Cc1cc(F)c(F)cc1F [SITAGLIPTIN]	> 135 µM	
ClC(Cl)(Cl)Cl [CARBON TETRACHLORIDE]	> 135 µM	
CCN(CC)CCNC(=O)c1ccc(NC(C)=O)cc1 [ACECAINIDE]	> 135 µM	
CCC1(c2ccccc2)C(=O)NC(=O)NC1=O [PHENOBARBITAL]	> 135 µM	
CCC1=C(C)CN(C(=O)NCCc2ccc(S(=O)(=O)NC(=O)N[C@H]3CC[C@H](C)CC3)cc2)C1=O [GLIMEPIRIDE]	15.7 µM	
CNCCCN1c2ccccc2CCc2ccccc21 [DESIPRAMINE]	> 135 µM	
CC(=O)O[C@H]1C[C@@]2(C)[C@@H](C[C@@H](O)[C@H]3[C@@]4(C)CC[C@@H](O)[C@@H](C)[C@@H]4CC[C@@]32C)/C1=C(\CCC=C(C)C)C(=O)O [FUSIDIC ACID]	10.1 µM	
C=CC1=C(C(=O)O)N2C(=O)[C@@H](NC(=O)/C(=N\OCC(=O)O)c3csc(N)n3)[C@H]2SC1 [CEFIXIME]	> 135 µM	
COc1ccccc1N1CCN(CCCNc2cc(=O)n(C)c(=O)n2C)CC1	> 135 µM	
O=C(O)c1ccccc1-c1c2ccc(=O)cc-2oc2cc(O)ccc12	> 135 µM	
CCOC(=O)C1=C(C)NC(C)=C(C(=O)OC)C1c1cccc([N+](=O)[O-])c1 (centres undefined) [NITRENDIPINE]	25 to 45 µM	

Structure (SMILES)	IC50 (Bile salt export pump [1])	also measured
CN(CCOc1ccc(CC2SC(=O)NC2=O)cc1)c1ccccn1 (centres undefined) [ROSIGLITAZONE]	4.4 µM	
CCc1nn(CCCN2CCN(c3cccc(Cl)c3)CC2)c(=O)n1CCOc1ccccc1 [NEFAZODONE]	6.1 µM	
COC(=O)[C@H]1[C@H]2C[C@@H]3c4[nH]c5cc(OC)ccc5c4CCN3C[C@H]2C[C@@H](OC(=O)c2cc(OC)c(OC)c(OC)c2)[C@@H]1OC [RESERPINE]	8.4 µM	
CC[C@H]1CN2CCc3cc(OC)c(OC)cc3[C@@H]2C[C@@H]1C[C@H]1NCCc2cc(OC)c(OC)cc21 [EMETINE]	> 135 µM	
CCOc1ccc(/C=C2\NCCc3cc(OCC)c(OCC)cc32)cc1OCC [DROTAVERINE]	37 µM	
CCC(=O)O[C@H]1[C@H](O[C@@H]2[C@@H](C)[C@H](O[C@H]3C[C@@](C)(OC)[C@@H](O)[C@H](C)O3)[C@@H](C)C(=O)O[C@H](CC)[C@@](C)(O)[C@H](O)[C@@H](C)C(=O)[C@H](C)C[C@@]2(C)O)O[C@H](C)C[C@@H]1N(C)C [ERYTHROMYCIN ESTOLATE]	13 µM	
O=C(NCCN1CCOCC1)c1ccc(Cl)cc1 [MOCLOBEMIDE]	> 135 µM	
CO[C@H]1/C=C/O[C@@]2(C)Oc3c(C)c(O)c4c(O)c(c(/C=N/N5CCN(C)CC5)c(O)c4c3C2=O)NC(=O)/C(C)=C\C=C\[C@H](C)[C@H](O)[C@@H](C)[C@@H](O)[C@@H](C)[C@H](OC(C)=O)[C@@H]1C [RIFAMPIN]	25.3 µM	
CCCCc1ncc(/C=C(\Cc2cccs2)C(=O)O)n1Cc1ccc(C(=O)O)cc1 [EPROSARTAN]	> 135 µM	
CC(C)N(CCC(C(N)=O)(c1ccccc1)c1ccccn1)C(C)C (centres undefined) [DISOPYRAMIDE]	> 135 µM	
CC(C)(C)NC[C@H](O)COc1nsnc1N1CCOCC1 [TIMOLOL]	> 135 µM	
CC(C)/N=c1\cc2n(-c3ccc(Cl)cc3)c3ccccc3nc-2cc1Nc1ccc(Cl)cc1 [CLOFAZIMINE]	12.9 µM	
CC(C)(C)NC(=O)[C@H]1CC[C@H]2[C@@H]3CC[C@H]4NC(=O)C=C[C@]4(C)[C@H]3CC[C@]12C [FINASTERIDE]	28.2 µM	
Oc1ccc2c(c1)[C@@]13CCCC[C@@]1(O)[C@@H](C2)N(CC1CCC1)CC3 [BUTORPHANOL]	> 135 µM	
N=C(N)c1ccc(OCCCCCOc2ccc(C(=N)N)cc2)cc1 [PENTAMIDINE]	> 135 µM	
Cc1ccnc2c1NC(=O)c1cccnc1N2C1CC1 [NEVIRAPINE]	> 135 µM	
COc1cc(NC(C)CCCN)c2ncccc2c1 (centres undefined) [PRIMAQUINE]	32.7 µM	
O=C1CN=C(c2ccccc2)c2cc([N+](=O)[O-])ccc2N1 [NITRAZEPAM]	> 135 µM	
CN1CC[C@]23c4c5ccc(O)c4O[C@H]2[C@@H](O)C=C[C@H]3[C@H]1C5 [MORPHINE]	> 135 µM	
CNC1(c2ccccc2Cl)CCCCC1=O (centres undefined) [KETAMINE]	> 135 µM	
CN(C)CCCN1c2ccccc2Sc2ccc(Cl)cc21 [CHLORPROMAZINE]	> 135 µM	
CCOC(=O)c1ncn2c1CN(C)C(=O)c1cc(F)ccc1-2 [FLUMAZENIL]	> 135 µM	
COC(=O)C1=C(C)NC(C)=C(C(=O)OCCN(C)Cc2ccccc2)C1c1cccc([N+](=O)[O-])c1 (centres undefined) [NICARDIPINE]	7.9 µM	
Clc1ccc2nsnc2c1NC1=NCCN1 [TIZANIDINE]	> 135 µM	
